Each block holds one molecule with its values, some of them ahead of it.
Key:
[1] = tested on: A549 cells; assay: Synthetic lethality: cell morphology with CCC021-TPP and ABT-199 or A1155463; assay type: cell-based; conditions: single administration: 20 μM CCC021-TPP, 10 μM ABT-199, 10 μM A1155463; 4 days
Description: It was confirmed with the BCL2- and BCL-XL-specific inhibitor that the suppression of cell death in the cellular senescence of the A549 cells was presumably due to the BCL pathway. The type of BCL pathway inhibition, combined use of which could induce cell death (apoptosis) in the senescent cells of the A549 cells was studied. Five hundred A549 cells were inoculated to a 96-well plate and cultured for 24 hours. Then, change in cell morphology was photographed under an optical microscope either without administration (i.e., after DMSO treatment) or 4 days after treatment with 20 μM CCC021-TPP and 10 μM BCL2 inhibitor ABT-199 (compound venetoclax of No. 33 in FIG. 55-10) or 10 μM BCL-XL inhibitor A1155463 (compound of No. 16 in FIG. 55-6) each alone, or treatment by combined use of the same concentration of CCC021-TPP with the same concentration of ABT-199 or A1155463.

[2] = tested on: A549 cells; assay: Synthetic lethality: cell morphology with CCC021-TPP and ABT-263; assay type: cell-based; conditions: each used alone: 20 μM CCC021-TPP, 10 μM ABT-263; days 2 and 4
Description: Since the suppression of cell death in the cellular senescence of the A549 cells was presumably due to the BCL pathway, it was believed that the apoptosis of cells whose cellular senescence was evoked by CCC021-TPP could be induced by combined use with ABT-263 (Cayman Chemical Company) serving as a senolytic drug and a BCL pathway inhibitor. Thus, the possibility of inducing the cell death of senescent cells by CCC021-TPP treatment and combined use with the BCL2/BCL-XL inhibitor ABT-263 was observed under an optical microscope to observe change in cell morphology. Five hundred A549 cells were inoculated to a 96-well plate, cultured for 24 hours, and then observed over time under an optical microscope either without administration or after administration of 20 μM CCC021-TPP and 10 μM ABT-263 each used alone or used concurrently, and cell morphology was photographed on days 2 and 4.

[3] = tested on: 3243G High cells; assay: Mitochondrial autophagy (LC3 / cytochrome C immunostaining); assay type: cell-based, human; conditions: 100 nM, 52 hours after treatment
Description: In order to study whether the decrease in the number of mutant mtDNA by PIP-TPP was caused by mitochondrial autophagy reaction, the following experiment was conducted. The mtDNA mutation cell line 3243G High cells were inoculated at 2×10^4 cells/dish to a 35 mm glass base dish (IWAKI), cultured for 24 hours, and then treated with the compound (final concentration: 100 nM). 52 hours after treatment, the cells were fixed with 4% paraformaldehyde (PFA)/PBS at room temperature for 30 minutes. The cells thus fixed were washed with PBS and blocked with 10% FBS/0.1% Triton X100/TBS (TBST) for 10 minutes. TBS is a mixed solution of sodium chloride (final concentration: […]) and Tris (pH 7.4) (final concentration: […]). After the completion of blocking, the cells were reacted overnight at 4° C. with primary antibodies diluted with TBST. The primary antibodies used were a rabbit anti-LC3 antibody (Cell Signaling Technology, Inc.) diluted at 1:200, and a mouse anti-cytochrome C antibody (Thermo Fisher Scientific, USA) diluted at 1:500. After the completion of reaction with the primary antibodies, the cells were washed three times with TBS and reacted for 15 minutes with secondary antibodies diluted with TBST, i.e., Goat anti Rabbit Oregon Green 488 (Invitrogen) diluted at 1:1000 and Goat anti Mouse Alexa Fluor 647 (Invitrogen) diluted at 1:1000. […]

[4] = tested on: 3243G Low cells; assay: Total mitochondrial DNA copy number by PCR of COII gene; assay type: cell-based, human; conditions: 1 μM and 5 μM, 48- or 63-day treatment
Description: (§1) The 3243G Low cells were inoculated at 2×10^4 cells/well to a 35 mm dish (Falcon, USA), cultured for 24 hours, and then treated with CCC019-TPP (final concentration: 1 μM and 5 μM). The medium was replaced once two days, and CCC019-TPP was continuously administered. Further, 48 and 63 days later, DNA was extracted using Allprep DNA/RNA Mini Kit (QIAGEN, Germany) according to the instruction manual. The yield of the DNA thus extracted was measured using NANODROP 2000c (Thermo Fisher Scientific). DNA samples were prepared, and PCR reaction and analysis were conducted. The primers and reaction conditions used are shown below.
(§2) The reaction conditions were as follows.
After the completion of PCR reaction, PCR products were electrophoresed on 2% agarose gel and then stained with ethidium bromide to detect bands of the PCR products. The bands were quantified with analytical software (Image J).
In order to predict the total copy number of mtDNA in the 3243G Low cells treated with CCC019-TPP for 48 or 63 days, COII gene constituting mitochondrial respiratory chain complex IV was subjected to PCR.

[5] = tested on: 3243G Low cells; assay: Ratio between normal mtDNA and mutant mtDNA by PCR-RFLP; assay type: cell-based, human; conditions: 1 μM and 5 μM, 48- or 63-day treatment
Description: as §1, with “(Falcon),” for “(Falcon, USA),”, “(QIAGEN)” for “(QIAGEN, Germany)”, “2000™” for “2000c”, “was” for “and analysis were”
as §2
PCR products were treated with restriction enzyme ApaI as described below, and analyzed. The PCR products were purified using QIAquick PCR Purification Kit (QIAGEN) according to the instruction manual. After the purification, the yield of DNA was measured using NANODROP 2000c (Thermo Fisher Scientific). After the measurement, reaction products amplified in PCR System 9700 (Applied Biosystems, USA) GeneAmp(R) were treated with restriction enzyme Apal at 37° C. for 5 hours. After the completion of reaction, 15 ng of samples was electrophoresed on 2% agarose gel and then stained with ethidium bromide to detect bands of the PCR products. The bands were quantified with analytical software (Image J). […]

[6] = Skin penetrability confirmation experiment (anti-TPP immunohistochemical staining); assay type: in vivo, mice ICR; conditions: 18 hours
Description: Outbred mice ICR were purchased from Oriental Yeast Co., Ltd. The experiment was conducted by the administration of linear-chain PIP-TPP (CCC149-TPP) having a molecular weight of 1274.7 to the mouse back. The back skin of each 5-week-old ICR mouse was shaved. After confirmation that the hair growth cycle was not reached, DMSO containing no PIP-TPP, and solutions of PIP-TPP (dissolved in DMSO, dissolved in 95% DMSO/5% laurocapram (transdermal absorption promoter) and dissolved in 95% DMSO/5% laurocapram 24 hours after stratum corneum removal) adjusted so as to attain 30 mg/cm^2 were applied to 4 locations, respectively, of the back as shown in FIG. 28 at the age of 6 weeks. 18 hours later, the mouse was euthanized, and skin tissues were obtained and fixed in 4% paraformaldehyde. Then, paraffin blocks were prepared and co-stained by immunohistochemical staining with an anti-TPP antibody and DAPI staining of the nucleus to test the skin penetrability of the drug into cells and subcutaneous tissues.

[7] = tested on: HeLa cells; assay: WST cell proliferation assay of library compounds; assay type: cell-based; conditions: Homo sapiens, 120 h, 5 days
Description: (§3) This compound can recognize the T4216C mutation of mitochondrial ND1 gene, and a uterine cervical cancer cell line C33A has this mutation. Cell proliferation assay with wild-type HeLa cells, which is also a uterine cervical cancer cell line, was conducted in the same manner as in Example 1. 1000 cells were inoculated to a 96-well plate, and CCC1283-TPP was administered at 0.5, 1, 5, 10, and 20 μM. 5 days later, WST assay was conducted.
as §3, with “CCCh531-TPP” for “CCC1283-TPP”
(§4) Compound CCCh560-TPP with a decacyclic structure targeting the A8860G polymorphism of mitochondrial gene ATP6 found in human populations, not acquired mitochondrial mutations in somatic cells, was studied for whether the suppression of cell proliferation was also found by 5-day treatment with the compound for the mitochondrial DNA polymorphism in cancer cell lines C33A, HeLa, Siha, Caski, and ME180 having this polymorphism in homoplasmy and human nontumor skin-derived fibroblast HDF cells. For this purpose, cell proliferation assay was conducted in the same manner as in Example 1. 1000 cells were inoculated to a 96-well plate, and CCCh560-TPP was administered at 0.5, 1, 5, 10, and 20 μM. 5 days later, WST assay was conducted.

[8] = tested on: C33A; assay: WST cell proliferation assay of library compounds; assay type: cell-based; conditions: Homo sapiens, C-33-A, 120 h, 5 days
Description: as §3
as §3, with “CCCh531-TPP” for “CCC1283-TPP”
as §4

Compound: CN(C)CC#Cc1ccc(OCCCc2sc(N3CCc4cccc(C(=O)Nc5nc6ccccc6s5)c4C3)nc2C(=O)O)c(F)c1 [A1155463, reference compound]
- cell death (morphology) [1]: Any finding indicating cell death was not obtained

Compound: CC1(C)CCC(c2ccc(Cl)cc2)=C(CN2CCN(c3ccc(C(=O)NS(=O)(=O)c4ccc(N[C@H](CCN5CCOCC5)CSc5ccccc5)c(S(=O)(=O)C(F)(F)F)c4)cc3)CC2)C1 [ABT-263, Navitoclax (ABT-263), reference compound]
- cells that underwent apoptosis (morphology) [2]: not detected

Compound: CC(=O)Nc1cn(C)c(C(=O)Nc2cn(C)c(C(=O)Nc3cn(C)c(C(=O)NCCC(=O)Nc4cc(C(=O)Nc5cc(C(=O)NCCCC(=O)Nc6cn(C)c(C(=O)Nc7cn(C)c(C(=O)Nc8cn(C)c(C(=O)NCCC(=O)Nc9cc(C(=O)Nc%10cc(C(=O)NCCC(=O)NCCCN(C)C)n(C)c%10)n(C)c9)n8)n7)n6)n(C)c5)n(C)c4)n3)n2)n1 [CCC018-TPP]
- colocalization of autophagic marker LC3 with mitochondria (mitophagy) [3]: colocalization of the autophagic effect with mitochondria was clearly observed

Compound: CN(C)CCCNC(=O)CCNC(=O)c1nc(NC(=O)c2nc(NC(=O)CCNC(=O)c3cc(NC(=O)c4nc(NC(=O)c5nc(NC(=O)CCCNC(=O)c6cc(NC(=O)c7cc(NC(=O)c8nc(NC(=O)CCNC(=O)c9cc(NC(=O)c%10cc(NC(=O)CCNC(=O)CCCC[P+](c%11ccccc%11)(c%11ccccc%11)c%11ccccc%11)cn%10C)cn9C)cn8C)cn7C)cn6C)cn5C)cn4C)cn3C)cn2C)cn1C [CCC019-TPP]
- total copy number of mtDNA [4]: tendency to increase the total copy number of mtDNA
- ratio between normal mtDNA and mutant mtDNA [5]: tendency to increase the proportion of wild-type mitochondrial DNA and decrease the proportion of mutant mitochondrial DNA

- skin penetrability (anti-TPP stain) ([6]; applied to back skin, dissolved in DMSO): present in skin basement membrane cells
Compound: CN(C)CCCNC(=O)CCNC(=O)c1cc(NC(=O)c2nc(NC(=O)CCNC(=O)c3nc(NC(=O)c4cc(NC(=O)c5nc(NC(=O)CCNC(=O)CCCC[P+](c6ccccc6)(c6ccccc6)c6ccccc6)cn5C)cn4C)cn3C)cn2C)cn1C [CCC149-TPP]
- skin penetrability (anti-TPP stain) ([6]; 95% DMSO/5% laurocapram (transdermal absorption promoter)): stain of TPP was found in the perikaryon of subcutaneous tissues
- skin penetrability (anti-TPP stain) ([6]; stratum corneum removal and 95% DMSO/5% laurocapram): more clearly found into the subcutaneous tissues and muscular coat

- IC50 [7]: 11.8 µM
Compound: CN(C)CCCNC(=O)CCNC(=O)c1cc(NC(=O)c2cc(NC(=O)c3nc(NC(=O)CCNC(=O)c4cc(NC(=O)c5cc(NC(=O)CCCNC(=O)c6nc(NC(=O)c7cc(NC(=O)CCNC(=O)c8cc(NC(=O)c9cc(NC(=O)c%10nc(NC(=O)CCNC(=O)CC[P+](c%11ccccc%11)(c%11ccccc%11)c%11ccccc%11)cn%10C)cn9C)cn8C)cn7C)cn6C)cn5C)cn4C)cn3C)cn2C)cn1C [CCCh531-TPP]
- IC50 [8]: 3.34 µM

Source: US20220193241A1, “AGENT TARGETING DOUBLE-MEMBRANE ORGANELLE DNA” (CHIBA-PREFECTURE, priority 2019, published 2022)
